From patent US12070457B2, “Substituted pyridines, pyridazines, pyrimidines, and 1,2,3-triazines as bruton's tyrosine kinase inhibitors” (HUTCHISON MEDIPHARMA LIMITED, priority 2020, dated 2024) come the findings set out here.

Each structure is given as a SMILES string.

The nature of data set [1]: Stability test in liver microsomes (mouse). In kind it is in vitro ADME. Conditions: 1 μM compound; for stability in mouse liver microsomes compared with reference GDC-0853: 0.5 mg/mL liver microsomes, 30 minutes incubation; for MLM, percentage of remaining compound after 30 minutes of incubation: mouse liver microsomes. An excerpt:
(§1) Example 5 Stability Test in Liver Microsomes
(§2) Both male CD-1 mouse pooled liver microsomes and male SD rat pooled liver microsomes were purchased from BioreclamationIVT Corporation, USA.
(§3) Phenacetin, glucose-6-phosphate dehydrogenase (G-6-PDH) and nicotinamide adenine dinucleotide phosphate (NADP) were all purchased from Sigma-Aldrich Corporation, USA. Glucose-6-phosphate (G-6-P) was purchased from Shanghai Eybridge Chemical Technology Co., Ltd.
(§4) Ten mM test compound stock solution: a certain amount of test compound was weighed, and dissolved with an appropriate volume of DMSO to prepare a stock solution with a concentration of 10 mM for use.
(§5) Reaction stopping solution: an appropriate amount of internal standard compound phenacetin was dissolved in acetonitrile to prepare a reaction stopping solution with a concentration of 1000 ng/mL for use at room temperature.
(§6) The test compound stock solution was diluted with an organic solvent (usually a mixture of acetonitrile, methanol and water with various ratios, depending on the solubility of the compound, if necessary, 1 N hydrochloric acid or 1 N sodium hydroxide would be added to facilitate solubilization) to the 0.1 mM (the final concentration of the compound in the reaction system was 1 μM) and the concentration percentage of the organic solvents in the incubation system no more than 1% (wherein the percentage of DMSO was required to be no more than 0.1%). An appropriate amount of 100 mM NADP, 500 mM G-6-P and 100 Unit/mL G-6-PDH were mixed and diluted with ultrapure water (the final system contains 1 mM NADP, 5 mM G-6-P and 1 Unit/mL G-6-PDH), pre-incubated in a 37° C. water bath for 10 minutes and then placed on ice for use as a NADPH regeneration solution. 20 mg/mL liver microsomes solution and 200 mM phosphate buffer was mixed, and diluted with ultrapure water to give a liver microsomes solution containing 2.5 mg/mL liver microsomes (the final concentration of the reaction system is 0.5 mg/mL) and 50 mM phosphate buffer. The diluted liver microsomes solution was mixed with 0.1 mM compound solution, a mixture of 100 mM EDTA, 300 mM MgCl2 solution, 200 mM phosphate buffer (the final system was 3 mM MgCl2, 1 mM EDTA and 50 mM phosphate buffer) and water in an appropriate volume was added. Finally, the NADPH regeneration solution was added, then the reaction solution was placed in a 37° C. water bath to start the reaction (the reaction time was 30 minutes), and the reaction was stopped by adding the ice-cold acetonitrile reaction stopping solution containing the internal standard. The 0-minute sample was not incubated in a 37° C. water bath, and its difference from the 30-minute sample further lies in that the ice-cold acetonitrile reaction stopping solution containing the internal standard was added first, and then the NADPH regeneration solution was added. The sample added with the reaction stopping internal standard solution was vortexed and mixed well, and then centrifuged at 4400 rpm for 10 minutes. The supernatant was taken and diluted ten times with 50% methanol for LC-MS/MS analysis.
(§7) LC-MS/MS was used to determine the concentration of the compound in the sample. The percentage of the remaining compound after 30 minutes of incubation comparing with that in the 0-minute sample was calculated using the peak area ratio of the compound to the internal standard as an indicator, to evaluate the metabolic stability of the compound.
(§8) Instrument: API4500, API4000 or LTQ Mass Spectrometer; the liquid phase is UHPLC system (Shimadzu LC-30 AD, model Nexra X2) including liquid delivery unit, column thermostat, detector and autosampler; or Agilent 1200 Binary Pump series HPLC and CTC Autosampler.
(§9) Chromatographic column: Waters XSELECT Hss T3 C18 (2.5 μm, 2.1×50 mm) or […] (5 μm, 2.0×50 mm)
(§10) Mobile phase: • A: water with 0.1% FA (formic acid) (with or without 0.1% ACN (acetonitrile)) • B: acetonitrile with 0.1% FA (formic acid).
Background: Liver microsomes are a subcellular fraction often used to study metabolism.

A short description of data set [2]: Stability test in liver microsomes (rat). The data set is classed as in vitro ADME. The note with it: 1 μM compound; for stability in rat liver microsomes compared with reference GDC-0853: 0.5 mg/mL liver microsomes, 30 minutes incubation; for RLM, percentage of remaining compound after 30 minutes of incubation: rat liver microsomes.
From the text: as §1, §2, §3, §4, §5, §6, §7, §8, §9, §10

Regarding `CC1CCc2cc3c(=O)n(-c4nccc(-c5cc(Nc6ccc(N7CCN(C8COC8)C[C@@H]7C)cn6)c(=O)n(C)c5)c4CO)ccn3c2C1` (mixture of isomers) [Compound 78], in data set [1], the “stability in mouse liver microsomes compared with reference GDC-0853” value is given as “better than that of the reference GDC-0853” and the “MLM, percentage of remaining compound after 30 minutes of incubation” value (“MLM, percentage of remaining compound” for short) is on record as 83.4%. In addition, in data set [2], the “stability in rat liver microsomes compared with reference GDC-0853” value was “better than that of the reference GDC-0853” and the “RLM, percentage of remaining compound after 30 minutes of incubation” value (“RLM, percentage of remaining compound” below) is on record as 91.8%.

As for `C[C@@H]1CN(c2ccc(Nc3cc(-c4ccnc(-n5ccn6c7c(cc6c5=O)CCC7)c4CO)cn(C)c3=O)nc2)[C@@H](C)CN1C1COC1` [Compound 2, 2-(5-((5-((2S,5R)-2,5-dimethyl-4-(oxetan-3-yl)piperazin-1-yl)pyridin-2-yl)amino)-3′-(hydroxymethyl)-1-methyl-6-oxo-1,6-dihydro-[3,4′-bispyridin]-2′-yl)-7,8-dihydro-2H-cyclopenta[4,5]pyrrolo[1,2-α]pyrazin-1(6H)-one], in data set [1], the “stability in mouse liver microsomes compared with reference GDC-0853” value is reported as “better than that of the reference GDC-0853” and the “MLM, percentage of remaining compound” value is reported as 90.5%. Also, in data set [2], the “stability in rat liver microsomes compared with reference GDC-0853” value is reported as “better than that of the reference GDC-0853” and the “RLM, percentage of remaining compound” value came out at 98.9%.

On to `Cn1cc(-c2ccnc(-n3ccn4c5c(cc4c3=O)CC(C)(C)C5)c2CO)cc(Nc2ccc(N3CCN(C4COC4)CC3)cn2)c1=O` [Compound 9], for which, in data set [1], the “stability in mouse liver microsomes compared with reference GDC-0853” value is “better than that of the reference GDC-0853” and the “MLM, percentage of remaining compound” value worked out at 95.7%. In data set [2], the “stability in rat liver microsomes compared with reference GDC-0853” value is on record as “better than that of the reference GDC-0853” and the “RLM, percentage of remaining compound” value is given as 89.5%.

As for `C[C@H]1CN(C2COC2)CCN1c1cnc(Nc2cc(-c3ccnc(-n4ccn5c6c(cc5c4=O)CC(C)(C)C6)c3CO)cn(C)c2=O)nc1` [Compound 44], in data set [1], the “stability in mouse liver microsomes compared with reference GDC-0853” value is “better than that of the reference GDC-0853” and the “MLM, percentage of remaining compound” value is reported as 93.1%. In addition, in data set [2], the “stability in rat liver microsomes compared with reference GDC-0853” value is given as “better than that of the reference GDC-0853” and the “RLM, percentage of remaining compound” value is 97.1%.

Regarding `C[C@H]1CN(C2COC2)CCN1c1ccc(Nc2cc(-c3ccnc(-n4ccn5c6c(cc5c4=O)CCC(F)(F)C6)c3CO)cn(C)c2=O)nc1` [Compound 56], in data set [1], the “stability in mouse liver microsomes compared with reference GDC-0853” value was “better than that of the reference GDC-0853” and the “MLM, percentage of remaining compound” value is given as 89.5%. Further, in data set [2], the “stability in rat liver microsomes compared with reference GDC-0853” value is given as “better than that of the reference GDC-0853” and the “RLM, percentage of remaining compound” value is reported as 93.7%.

Regarding `C[C@H]1CN(C2COC2)CCN1c1ccc(Nc2cc(-c3ccnc(-n4ccn5c6c(cc5c4=O)CC(F)(F)CC6)c3CO)cn(C)c2=O)nc1` [Compound 58], in data set [1], the “stability in mouse liver microsomes compared with reference GDC-0853” value is listed as “better than that of the reference GDC-0853” and the “MLM, percentage of remaining compound” value is 97.1%. Besides, in data set [2], the “stability in rat liver microsomes compared with reference GDC-0853” value is on record as “better than that of the reference GDC-0853” and the “RLM, percentage of remaining compound” value is reported as approximately 100%.

With `C[C@H]1CN(C2COC2)CCN1c1ccc(Nc2cc(-c3ccnc(-n4cnn5c6c(cc5c4=O)CC(C)(C)C6)c3CO)cn(C)c2=O)nc1` [Compound 63], in data set [1], the “stability in mouse liver microsomes compared with reference GDC-0853” value is given as “better than that of the reference GDC-0853” and the “MLM, percentage of remaining compound” value was 85.8%. In addition, in data set [2], the “stability in rat liver microsomes compared with reference GDC-0853” value is on record as “better than that of the reference GDC-0853” and the “RLM, percentage of remaining compound” value came to 89.6%.

On to `C[C@H]1CN(C2COC2)CCN1c1ccc(Nc2cc(-c3ccnc(-n4ccn5c6c(cc5c4=O)CCC6)c3CO)cn(C)c2=O)nc1` [Compound 64], for which, in data set [1], the “stability in mouse liver microsomes compared with reference GDC-0853” value was “better than that of the reference GDC-0853” and the “MLM, percentage of remaining compound” value amounted to 95.6%. In data set [2], the “stability in rat liver microsomes compared with reference GDC-0853” value is given as “better than that of the reference GDC-0853” and the “RLM, percentage of remaining compound” value came to 92.1%.

As to `C[C@H]1CN(C2COC2)CCN1c1ccc(Nc2cc(-c3ccnc(-n4ccn5c(cc6ccccc65)c4=O)c3CO)cn(C)c2=O)nc1` [Compound 74], in data set [1], the “stability in mouse liver microsomes compared with reference GDC-0853” value is given as “better than that of the reference GDC-0853” and the “MLM, percentage of remaining compound” value is listed as 97.5%. In data set [2], the “stability in rat liver microsomes compared with reference GDC-0853” value was “better than that of the reference GDC-0853” and the “RLM, percentage of remaining compound” value worked out at 87.7%.

Regarding `C[C@H]1CN(C2COC2)CCN1c1ccc(Nc2cc(-c3ccnc(-n4ccn5c(cc6cc(F)ccc65)c4=O)c3CO)cn(C)c2=O)nc1` [Compound 75], in data set [1], the “stability in mouse liver microsomes compared with reference GDC-0853” value was “better than that of the reference GDC-0853” and the “MLM, percentage of remaining compound” value was found to be 83.0%. In addition, in data set [2], the “stability in rat liver microsomes compared with reference GDC-0853” value was “better than that of the reference GDC-0853” and the “RLM, percentage of remaining compound” value is on record as 84.0%.

As for `C[C@H]1CN(C2COC2)CCN1c1ccc(Nc2cc(-c3ccnc(-n4ncn5c6c(cc5c4=O)CC(C)(C)C6)c3CO)cn(C)c2=O)nc1` [Compound 79], in data set [1], the “stability in mouse liver microsomes compared with reference GDC-0853” value is on record as “better than that of the reference GDC-0853” and the “MLM, percentage of remaining compound” value is approximately 100%. Also, in data set [2], the “stability in rat liver microsomes compared with reference GDC-0853” value is “better than that of the reference GDC-0853” and the “RLM, percentage of remaining compound” value is approximately 100%.
